Patent publication US20250041304A1 (Eli Lilly and Company, priority 2021, published 2025)
Where two headings read alike, the source gives them in different places.

Experiments:
[1] = system: patients with HE; details: cited from earlier work; for HE severity after treatment / HECSI score after treatment: after 16 weeks; for HE severity after treatment: 'severe' at start
[2] = system: HE; assay: clinical studies of baricitinib for treating HE (Example 2, with Davos Biosciences GmbH); format: in vivo, human; details: daily dosage of 4 mg

Structure (SMILES): CCS(=O)(=O)N1CC(CC#N)(n2cc(-c3ncnc4[nH]ccc34)cn2)C1 [baricitinib, {1-(ethylsulfonyl)-3-[4-(7H-pyrrolo[2,3-d]pyrimidin-4-yl)-1H-pyrazol-1-yl]azetidin-3-yl}acetonitrile]
- treatment outcome of two patients with HE ([1]; 4 mg tablet once per day): successfully treated
- HE severity after treatment ([1]; case 1: severe hyperkeratotic HE, 4 mg once per day): almost clear
- HECSI score after treatment ([1]; case 1, 4 mg once per day, HECSI 55 (severe) at start): 4
- tolerability / side effects ([1]; case 1, 4 mg once per day): no side effects occurred
- quality of life (QOLHEQ) after treatment ([1]; case 1, improved from "strongly impaired"): not at all impaired
- HE severity after treatment ([1]; case 2: severe AD with severe atopic HE, 4 mg per day tapered to 2 mg per day at 12 weeks): almost clear
- HECSI score after treatment ([1]; case 2, 4 mg per day tapered to 2 mg at 12 weeks, HECSI 47 (severe) at start): 8
- adverse event leading to discontinuation ([1]; case 2, at 16 weeks): bacterial corneal ulcer
- quality of life (QOLHEQ) after treatment ([1]; case 2, improved from "moderately impaired"): not at all impaired
- efficacy in HE (photographic images and additional clinical data) [2]: effective
